# How the values were obtained:
# Ctenocephalides felis = Ctenocephalides felis - oral test; type: in vivo; details: application rate 100 ppm in citrated cattle blood; after 2 days
# Experimental: (§1) Solvent: dimethyl sulphoxide
# For the purpose of producing an appropriate active ingredient formulation, 10 mg of active ingredient are mixed with 0.5 ml of dimethyl sulphoxide. Dilution with citrated cattle blood gives the desired concentration.
# About 20 unfed adult cat fleas (Ctenocephalides felis) are placed into a chamber which is closed at the top and bottom with gauze. A metal cylinder whose bottom end is closed with parafilm is placed onto the chamber. The cylinder contains the blood/active ingredient preparation, which can be imbibed by the fleas through the parafilm membrane.
# After 2 days, the kill in % is determined. 100% means that all of the fleas have been killed; 0% means that none of the fleas have been killed.
# Spodoptera frugiperda = Spodoptera frugiperda - spray test; type: in vivo; details: caterpillars on maize leaf discs, after 7 days
# Experimental: (§2) Solvent: 78.0 parts by weight of acetone and 1.5 parts by weight of dimethylformamide
# (§3) Emulsifier: alkylaryl polyglycol ether
# (§4) To produce an appropriate active ingredient formulation, 1 part by weight of active ingredient is dissolved using the specified parts by weight of solvent and made up with water containing an emulsifier concentration of 1000 ppm until the desired concentration is attained. To produce further test concentrations, the preparation is diluted with emulsifier-containing water.
# Leaf discs of maize (Zea mays) are sprayed with an active ingredient formulation of the desired concentration and, after drying, populated with caterpillars of the armyworm (Spodoptera frugiperda).
# After 7 days, efficacy in % is determined. 100% means that all the caterpillars have been killed; 0% means that no caterpillars have been killed.
# Lucilia cuprina = Lucilia cuprina test; type: in vivo; details: application rate 100 ppm; L1 larvae; after 2 days
# Experimental: as §1
# (§5) To produce an appropriate active ingredient formulation, 10 mg of active ingredient are mixed with 0.5 ml of dimethyl sulphoxide, and the concentrate is diluted with water to the desired concentration.
# About 20 L1 larvae of the Australian sheep blowfly (Lucilia cuprina) are transferred into a test vessel containing minced horsemeat and the active ingredient preparation of the desired concentration.
# After 2 days, the kill in % is determined. 100% means that all the larvae have been killed; 0% means that none of the larvae have been killed.
# [1] = logP determination by HPLC on a reversed-phase column (C18); type: physicochemical; details: for logP^a): HPLC-MS method a); for log P: HPLC-MS
# Tetranychus urticae = Tetranychus urticae - spray test, OP-resistant; type: in vivo; details: bean leaf discs, after 6 days
# Experimental: as §2, §3, §4
# Discs of bean leaves (Phaseolus vulgaris) infested by all stages of the greenhouse red spider mite (Tetranychus urticae) are sprayed with an active ingredient formulation of the desired concentration.
# After 6 days, efficacy in % is determined. 100% means that all the spider mites have been killed; 0% means that none of the spider mites have been killed.
# Boophilus microplus = Boophilus microplus - injection test; type: in vivo; details: application rate 20 μg/animal, injection into engorged adult female ticks, after 7 days
# Experimental: as §1
# To produce an appropriate active ingredient formulation, 10 mg of active ingredient are mixed with 0.5 ml of solvent and the concentrate is diluted with solvent to the desired concentration.
# 1 μl of the active ingredient solution is injected into the abdomen of 5 engorged adult female cattle ticks (Boophilus microplus). The animals are transferred into dishes and kept in a climate-controlled room.
# Efficacy is assessed after 7 days by laying of fertile eggs. Eggs which are not visibly fertile are stored in a climate-controlled cabinet until the larvae hatch after about 42 days. An efficacy of 100% means that none of the ticks has laid any fertile eggs; 0% means that all the eggs are fertile.
# Phaedon cochleariae = Phaedon cochleariae - spray test; type: in vivo; details: larvae on Chinese cabbage leaf discs, after 7 days
# Experimental: as §2, §3, §4
# Discs of Chinese cabbage leaves (Brassica pekinensis) are sprayed with an active ingredient formulation of the desired concentration and, after drying, populated with larvae of the mustard beetle (Phaedon cochleariae).
# After 7 days, efficacy in % is determined. 100% means that all the beetle larvae have been killed; 0% means that no beetle larvae have been killed.
# Musca domestica = Musca domestica test; type: in vivo; details: application rate 100 ppm; adult houseflies; after 2 days
# Experimental: as §1, §5
# Vessels containing a sponge treated with sugar solution and the active ingredient formulation of the desired concentration are populated with 10 adult houseflies (Musca domestica).
# After 2 days, the kill in % is determined. 100% means that all of the flies have been killed; 0% means that none of the flies have been killed.
# [2] = reversed-phase column (C18), Table I-T3
SMILES,efficacy (kill) (Ctenocephalides felis),efficacy (Spodoptera frugiperda; application rate 500 g/ha),efficacy (kill) (Lucilia cuprina),logP^a) [1],"logP^a) [1, 2]",efficacy (Tetranychus urticae; application rate 500 g/ha),efficacy (laying of fertile eggs) (Boophilus microplus),efficacy (Phaedon cochleariae; application rate 500 g/ha),efficacy (kill) (Musca domestica),"pest or weed control at 0.02 mg (Boophilus microplus; Rhipicephalus microplus, 168 h, read-out: efficacy (laying of fertile eggs))",logP^a) ([1]; reversed-phase column (C18)),"log P [1, 2]",efficacy (Tetranychus urticae; application rate 100 g/ha),efficacy (Spodoptera frugiperda; application rate 100 g/ha),efficacy (Phaedon cochleariae; application rate 100 g/ha),efficacy (Tetranychus urticae; application rate 20 g/ha)
CCc1cc(C(F)(C(F)(F)F)C(F)(F)F)cc(C)c1-n1cc(-c2cccc(C(=O)NC3CC3)c2F)cn1 [I-T3-70],95%,100%,100%,4.3,4.7,90%,100%,100%,–,–,–,–,–,–,–,–
"Cc1cc(C(F)(C(F)(F)F)C(F)(F)F)cc(C)c1-n1cc(-c2ncc(Cl)c(C(=O)NC3CC3)n2)cn1 [I-T3-121, 5-chloro-N-cyclopropyl-2-[1-[2,6-dimethyl-4-[1,2,2,2-tetrafluoro-1-(trifluoromethyl)ethyl]phenyl]pyrazol-4-yl]pyrimidine-4-carboxamide]",–,–,–,–,–,–,–,–,80%,80%,–,–,–,–,–,–
Cc1cc(C(F)(C(F)(F)F)C(F)(F)F)cc(C)c1-n1cc(-c2cc(C(=O)NC3(C#N)CC3)c(F)cc2Cl)cn1 [I-T3-12],100%,100%,80%,4.7,4.7,–,100%,100%,–,–,–,–,–,–,–,–
Cn1ccc(NC(=O)c2cc(-c3cnn(-c4c(Cl)cc(C(F)(F)F)cc4Cl)c3)cnc2Cl)n1 [I-T3-146],100%,–,90%,–,–,–,100%,–,–,–,2.8,2.8,100%,–,–,–
CCc1cc(C(F)(C(F)(F)F)C(F)(F)F)ccc1-n1cc(-c2cccc(C(=O)NC3(C#N)CC3)c2F)cn1 [I-T3-74],–,100%,90%,4.1,4.5,–,100%,100%,–,–,–,–,90%,–,–,–
CCc1cc(C(F)(F)C(F)(F)F)cc(C)c1-n1cc(-c2ccc(Cl)c(C(=O)NC3CSC3)c2)cn1 [I-T3-83],95%,–,100%,4.6,4.6,–,100%,–,–,–,–,–,100%,100%,100%,–
CCc1cc(C(F)(C(F)(F)F)C(F)(F)F)ccc1-n1cc(-c2ccc(Cl)c(C(=O)NC3CSC3)c2)cn1 [I-T3-41],95%,–,90%,4.9,4.9,–,100%,–,–,–,–,–,100%,100%,100%,–
Cc1cc(C(F)(C(F)(F)F)C(F)(F)F)cc(C)c1-n1cc(-c2cnc(C3CC3)c(C(=O)NC3CC3)c2)cn1 [I-T3-140],100%,–,100%,–,–,–,100%,–,–,–,4.2,4.2,–,100%,100%,–
Cc1cc(C(F)(C(F)(F)F)C(F)(F)F)cc(C)c1-n1cc(-c2cc(C(=O)NC3CC3)cc(C(F)(F)F)c2)cn1 [I-T3-15],90%,–,100%,4.9,4.9,–,100%,100%,–,–,–,–,–,–,–,–
CCc1cc(C(F)(C(F)(F)F)C(F)(F)F)cc(C)c1-n1cc(-c2ccc(Cl)c(C(=O)NCC(F)(F)F)c2)cn1 [I-T3-45],95%,100%,100%,5.0,5.0,100%,100%,100%,–,–,–,–,–,–,–,–
CCc1cc(C(F)(C(F)(F)F)C(F)(F)F)ccc1-n1cc(-c2cccc(C(=O)NC3CC3)c2F)cn1 [I-T3-75],–,100%,80%,4.2,4.7,100%,90%,100%,–,–,–,–,–,–,–,–
CCc1cc(C(F)(C(F)(F)F)C(F)(F)F)ccc1-n1cc(-c2cncc(C(=O)NC3(C#N)CC3)c2)cn1 [I-T3-78],100%,100%,100%,3.2,3.8,100%,100%,100%,–,–,–,–,–,–,–,–
O=C(NC1CSC1)c1cc(-c2cnn(-c3ccc(C(F)(C(F)(F)F)C(F)(F)F)cc3OC(F)(F)F)c2)ccc1Cl [I-T3-37],90%,–,100%,4.9,4.9,–,100%,100%,–,–,–,–,–,–,–,–
CCc1cc(C(F)(C(F)(F)F)C(F)(F)F)cc(C)c1-n1cc(-c2cccc(C(=O)NC3(C#N)CC3)c2F)cn1 [I-T3-69],100%,100%,95%,4.3,4.5,100%,100%,100%,–,–,–,–,–,–,–,–
Cc1cc(C(F)(C(F)(F)F)C(F)(F)F)cc(C)c1-n1cc(-c2cccc(C(=O)NC3(C#N)CC3)c2F)cn1 [I-T3-10],100%,100%,100%,4.2,4.2,100%,100%,100%,–,–,–,–,–,–,–,–
CCc1cc(C(F)(C(F)(F)F)C(F)(F)F)ccc1-n1cc(-c2ccc(Cl)c(C(=O)NCC(F)(F)F)c2)cn1 [I-T3-40],100%,–,100%,4.9,4.9,–,100%,–,–,–,–,–,–,100%,100%,–
O=C(NCC(F)(F)F)c1cc(-c2cnn(-c3ccc(C(F)(C(F)(F)F)C(F)(F)F)cc3OC(F)(F)F)c2)ccc1Cl [I-T3-36],80%,–,100%,5.0,5.0,–,100%,100%,–,–,–,–,–,–,–,–
Cc1cc(C(F)(C(F)(F)F)C(F)(F)F)cc(C)c1-n1cc(-c2cc(C(=O)NC3(C#N)CC3)cc(C(F)(F)F)c2)cn1 [I-T3-18],100%,100%,100%,4.7,4.7,–,100%,100%,–,–,–,–,–,–,–,–
CCc1cc(C(F)(F)C(F)(F)F)cc(C)c1-n1cc(-c2ccc(Cl)c(C(=O)NCC(F)(F)F)c2)cn1 [I-T3-82],95%,–,100%,4.0,4.0,–,100%,–,–,–,–,–,100%,100%,100%,–
N#CC1(NC(=O)c2cc(-c3cnn(-c4c(F)cc(C(F)(F)F)cc4F)c3)ccc2Cl)CC1 [I-T3-49],100%,–,100%,3.2,3.2,–,100%,–,–,–,–,–,–,–,100%,100%
